Assay [1] deals with T1, IDO1 (Homo sapiens, UniProt P14902).
T1 construct: His tag (N); made in house; host or cells: E. coli
Briefly: IDO enzymatic assay. The assay is classed as biochemical. Conditions: geometric mean; read-out: IDO1 GMean: IC50 (μM) (Biochemical Assay). The gist of the method:
(§1)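 N-His human enzymes from E. coli in 50 mM sodium phosphate pH 6.5 with ascorbate, catalase, Tween 20. IDO: 6 nM enzyme, 10 μM L-Trp, 5 μM methylene blue, 20 min RT; TDO: 1 nM enzyme, 350 μM L-Trp, 0.4 μM methylene blue, 70 min RT. TCA stop, kynurenine measured; IC50 by nonlinear regression.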

Assay [2] has as its target T2, TDO (Homo sapiens, UniProt P48775).
T2 construct: His tag (N); made in house; host or cells: E. coli
Briefly: TDO enzymatic assay. As to conditions: geometric mean; read-out: TDO GMean: IC50 (μM) (Biochemical Assay). Put shortly: as §1

For assay [3], the target named is T3, IDO1-expressing HEK293 cell clones (Homo sapiens, UniProt P14902).
T3 construct: expressed in transfected cells; host or cells: HEK293
Description: Cell based kynurenine assay, IDO1-expressing HEK293 cell clones. As to conditions: HEK293 cells, 24 hours of incubation, geometric mean; read-out: HEK293 IDO1 Kynurenine GMean IC50 (μM) (Cellular Assay). Put shortly: (§2)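 HEK293 clones stably transfected with CMV-driven human IDO1 or human TDO were seeded at 2.5×10^4 cells/well and treated with serial compound dilutions for 24 hours. Supernatant kynurenine was measured. % inhibition versus DMSO-cell and media-only controls was fitted by nonlinear regression to give IC50.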

Assay [4] concerns the target T4, TDO-expressing HEK293 cell clones (Homo sapiens, UniProt P48775).
T4 construct: expressed in transfected cells; host or cells: HEK293
Description: Cell based kynurenine assay, TDO-expressing HEK293 cell clones. As to conditions: HEK293 cells, 24 hours of incubation, geometric mean; read-out: HEK293 TDO Kynurenine GMean IC50 (μM) (Cellular Assay). The gist of the method:
as §2

Bounds are passed on as bounds.

T4 sequence (P48775 whole entry): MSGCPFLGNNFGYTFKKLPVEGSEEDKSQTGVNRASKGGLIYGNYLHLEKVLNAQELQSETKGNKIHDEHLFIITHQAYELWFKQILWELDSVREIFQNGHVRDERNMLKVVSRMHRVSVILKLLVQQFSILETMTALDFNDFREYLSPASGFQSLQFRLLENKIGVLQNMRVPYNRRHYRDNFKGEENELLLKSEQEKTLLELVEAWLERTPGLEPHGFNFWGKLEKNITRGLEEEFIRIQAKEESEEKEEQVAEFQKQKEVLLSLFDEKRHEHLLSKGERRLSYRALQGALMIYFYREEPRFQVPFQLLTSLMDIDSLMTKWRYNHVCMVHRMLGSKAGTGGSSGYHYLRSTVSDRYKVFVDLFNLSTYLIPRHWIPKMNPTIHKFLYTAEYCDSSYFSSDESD
T2 sequence (P48775 whole entry): as above
T1 sequence (P14902 whole entry): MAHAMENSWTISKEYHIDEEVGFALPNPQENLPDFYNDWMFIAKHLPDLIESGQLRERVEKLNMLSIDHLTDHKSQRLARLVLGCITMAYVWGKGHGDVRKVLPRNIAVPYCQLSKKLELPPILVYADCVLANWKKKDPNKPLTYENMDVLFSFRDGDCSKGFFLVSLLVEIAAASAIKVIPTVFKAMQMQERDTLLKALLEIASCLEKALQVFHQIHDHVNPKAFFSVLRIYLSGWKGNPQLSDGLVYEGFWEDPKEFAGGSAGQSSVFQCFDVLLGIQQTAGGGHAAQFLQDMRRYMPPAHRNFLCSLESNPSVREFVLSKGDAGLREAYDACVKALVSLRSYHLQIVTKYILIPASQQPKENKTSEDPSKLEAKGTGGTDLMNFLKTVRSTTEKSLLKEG
T3 sequence (P14902 whole entry): as above

`CC(C)(C1CCN(C(=O)NO)CC1)[C@H](O)c1cc(Cl)cc2cn[nH]c12` [Compound P-0122, (S)-4-(1-(5-chloro-1H-indazol-7-yl)-1-hydroxy-2-methylpropan-2-yl)-N-hydroxypiperidine-1-carboxamide]: the IC50 in assay [1], in assay [2], in assay [3] and in assay [4] was 0.0001 to 10 µM in each case.

With `CC(C)(C1CCN(C(=O)NOCc2ccccc2)CC1)[C@H](O)c1cc(Cl)cc2cn[nH]c12` [Compound P-0123, (S)-N-(benzyloxy)-4-(1-(5-chloro-1H-indazol-7-yl)-1-hydroxy-2-methylpropan-2-yl)piperidine-1-carboxamide], the IC50 in assay [1], in assay [2], in assay [3] and in assay [4] was 0.0001 to 10 µM throughout.

For `C[C@H](O)C(=O)N1CCC(C(C)(C)[C@H](O)c2cc(Cl)cc3cn[nH]c23)CC1` [Compound P-0124, (S)-1-(4-((S)-1-(5-chloro-1H-indazol-7-yl)-1-hydroxy-2-methylpropan-2-yl)piperidin-1-yl)-2-hydroxypropan-1-one], the IC50 in assay [1], in assay [2], in assay [3] and in assay [4] was 0.0001 to 10 µM each time.

For `C[C@@H](N)C(=O)N1CCC(C(C)(C)[C@H](O)c2cc(Cl)cc3cn[nH]c23)CC1` [Compound P-0125, (R)-2-amino-1-(4-((S)-1-(5-chloro-1H-indazol-7-yl)-1-hydroxy-2-methylpropan-2-yl)piperidin-1-yl)propan-1-one], the half-maximal inhibitory concentration (IC50) in assay [1], in assay [2], in assay [3] and in assay [4] was 0.0001 to 10 µM in each case.

In the case of `CC(C)(C1CCN(C(=O)CN)CC1)[C@H](O)c1cc(Cl)cc2cn[nH]c12` [Compound P-0126, (S)-2-amino-1-(4-(1-(5-chloro-1H-indazol-7-yl)-1-hydroxy-2-methylpropan-2-yl)piperidin-1-yl)ethan-1-one], the IC50 in assay [1], in assay [2], in assay [3] and in assay [4] was 0.0001 to 10 µM each time.

For `C[C@H](N)C(=O)N1CCC(C(C)(C)[C@H](O)c2cc(Cl)cc3cn[nH]c23)CC1` [Compound P-0127, (S)-2-amino-1-(4-((S)-1-(5-chloro-1H-indazol-7-yl)-1-hydroxy-2-methylpropan-2-yl)piperidin-1-yl)propan-1-one], the IC50 in assay [1], in assay [2], in assay [3] and in assay [4] was 0.0001 to 10 µM throughout.

Take `CNCC(=O)N1CCC(C(C)(C)[C@H](O)c2cc(Cl)cc3cn[nH]c23)CC1` [Compound P-0128, (S)-1-(4-(1-(5-chloro-1H-indazol-7-yl)-1-hydroxy-2-methylpropan-2-yl)piperidin-1-yl)-2-(methylamino)ethan-1-one]: the half-inhibitory concentration (IC50) in assay [1], in assay [2], in assay [3] and in assay [4] was 0.0001 to 10 µM in each case.

As for `CN(O)C(=O)N1CCC(C(C)(C)[C@H](O)c2cc(Cl)cc3cn[nH]c23)CC1` [Compound P-0129, (S)-4-(1-(5-chloro-1H-indazol-7-yl)-1-hydroxy-2-methylpropan-2-yl)-N-hydroxy-N-methylpiperidine-1-carboxamide], the IC50 in assay [1], in assay [2], in assay [3] and in assay [4] was 0.0001 to 10 µM in each case.

On to `CON(C)C(=O)N1CCC(C(C)(C)[C@H](O)c2cc(Cl)cc3cn[nH]c23)CC1` [Compound P-0130, (S)-4-(1-(5-chloro-1H-indazol-7-yl)-1-hydroxy-2-methylpropan-2-yl)-N-methoxy-N-methylpiperidine-1-carboxamide], for which the IC50 in assay [1], in assay [2], in assay [3] and in assay [4] was 0.0001 to 10 µM each time.

Take `C[C@@H](O)C(=O)N1CCC(C(C)(C)[C@H](O)c2cc(Cl)cc3cn[nH]c23)CC1` [Compound P-0131, (R)-1-(4-((S)-1-(5-chloro-1H-indazol-7-yl)-1-hydroxy-2-methylpropan-2-yl)piperidin-1-yl)-2-hydroxypropan-1-one]: the IC50 in assay [1], in assay [2], in assay [3] and in assay [4] was 0.0001 to 10 µM throughout.

With `CC(C)(O)C(=O)N1CCC(C(C)(C)[C@H](O)c2cc(Cl)cc3cn[nH]c23)CC1` [Compound P-0132, (S)-1-(4-(1-(5-chloro-1H-indazol-7-yl)-1-hydroxy-2-methylpropan-2-yl)piperidin-1-yl)-2-hydroxy-2-methylpropan-1-one], the IC50 in assay [1], in assay [2], in assay [3] and in assay [4] was 0.0001 to 10 µM each time.

Regarding `CC(C)(C1CCN(C(=O)C2(O)CC2)CC1)[C@H](O)c1cc(Cl)cc2cn[nH]c12` [Compound P-0133, (S)-(4-(1-(5-chloro-1H-indazol-7-yl)-1-hydroxy-2-methylpropan-2-yl)piperidin-1-yl)(1-hydroxycyclopropyl)methanone], the IC50 in assay [1], in assay [2], in assay [3] and in assay [4] was 0.0001 to 10 µM each time.

As to `CC(C)(C1CCN(C(=O)CCO)CC1)[C@H](O)c1cc(Cl)cc2cn[nH]c12` [Compound P-0134, (S)-1-(4-(1-(5-chloro-1H-indazol-7-yl)-1-hydroxy-2-methylpropan-2-yl)piperidin-1-yl)-3-hydroxypropan-1-one], the IC50 in assay [1], in assay [2], in assay [3] and in assay [4] was 0.0001 to 10 µM throughout.

`CS(=O)(=O)N1CCC2(CC1)CC(O)(c1c(F)c(Cl)cc3cn[nH]c13)C2` [Compound P-0136, 2-(5-chloro-6-fluoro-1H-indazol-7-yl)-7-(methylsulfonyl)-7-azaspiro[3.5]nonan-2-ol]: the IC50 in assay [1], in assay [2], in assay [3] and in assay [4] was 0.0001 to 10 µM throughout.

As to `CC(C)(C)OC(=O)N1CCC(C(C)(C)[C@H](O)c2cc(Cl)cc3[nH]ncc23)CC1` [Compound P-0142, tert-butyl (S)-4-(1-(6-chloro-1H-indazol-4-yl)-1-hydroxy-2-methylpropan-2-yl)piperidine-1-carboxylate], the IC50 (commonly the point on the concentration scale where inhibition reaches its midpoint) in assay [1] is 0.0001 to 10 µM; in assay [2], 0.0001 to 10 µM; in assay [3], greater than 10 µM; in assay [4], 0.0001 to 10 µM.

As to `[2H]C([2H])([2H])C(C1CCN(C(=O)CO)CC1)(C(O)c1cc(Cl)cc2cn[nH]c12)C([2H])([2H])[2H]` (stereo not drawn) [Compound P-0143, 1-(4-(2-((5-chloro-1H-indazol-7-yl)(hydroxy)methyl)propan-2-yl-1,1,1,3,3,3-d6)piperidin-1-yl)-2-hydroxyethan-1-one], the IC50 in assay [1], in assay [2], in assay [3] and in assay [4] was 0.0001 to 10 µM in each case.

For `CC(C)(C)OC(=O)N1CCC(C(C)(C)[C@@H](O)c2cc(Cl)cc3[nH]ncc23)CC1` [Compound P-0144, tert-butyl (R)-4-(1-(6-chloro-1H-indazol-4-yl)-1-hydroxy-2-methylpropan-2-yl)piperidine-1-carboxylate], the IC50 in assay [1] was 0.0001 to 10 µM; in assay [2], 0.0001 to 10 µM; in assay [3], greater than 10 µM; in assay [4], 0.0001 to 10 µM.

In the case of `CC(C)(C1CCN(C(=O)CO)CC1)[C@H](O)c1cc(Cl)cc2[nH]ncc12` [Compound P-0145, (S)-1-(4-(1-(6-chloro-1H-indazol-4-yl)-1-hydroxy-2-methylpropan-2-yl)piperidin-1-yl)-2-hydroxyethan-1-one], the IC50 in assay [1] was 0.0001 to 10 µM; in assay [2] it was 0.0001 to 10 µM; in assay [3], greater than 10 µM; in assay [4] it was 0.0001 to 10 µM.

In the case of `CC(C)(C1CCN(C(=O)CO)CC1)[C@@H](O)c1cc(Cl)cc2[nH]ncc12` [Compound P-0146, (R)-1-(4-(1-(6-chloro-1H-indazol-4-yl)-1-hydroxy-2-methylpropan-2-yl)piperidin-1-yl)-2-hydroxyethan-1-one], the IC50 is 0.0001 to 10 µM in assay [1], 0.0001 to 10 µM in assay [2], greater than 10 µM in assay [3] and 0.0001 to 10 µM in assay [4].

Consider `CCS(=O)(=O)N1CCC(C(C)(C)[C@H](O)c2cc(Cl)cc3[nH]ncc23)CC1` [Compound P-0147, (S)-1-(6-chloro-1H-indazol-4-yl)-2-(1-(ethylsulfonyl)piperidin-4-yl)-2-methylpropan-1-ol], for which the IC50 in assay [1] was 0.0001 to 10 µM; in assay [2] it was 0.0001 to 10 µM; in assay [3], greater than 10 µM; in assay [4], 0.0001 to 10 µM.

`CCS(=O)(=O)N1CCC(C(C)(C)[C@@H](O)c2cc(Cl)cc3[nH]ncc23)CC1` [Compound P-0148, (R)-1-(6-chloro-1H-indazol-4-yl)-2-(1-(ethylsulfonyl)piperidin-4-yl)-2-methylpropan-1-ol]: the half-maximal inhibitory concentration (IC50) in assay [1] is 0.0001 to 10 µM; in assay [2], 0.0001 to 10 µM; in assay [3], greater than 10 µM; in assay [4], 0.0001 to 10 µM.

The values are drawn from patent US11149011B2, “Compounds and methods for IDO and TDO modulation, and indications therefor” (Plexxikon Inc., priority 2018, dated 2021).
